The source made the active and inactive calls. No rule for the calls is given here.
Test system: CCRIS mutagenicity, Ames/micronucleus/aberration tests
Assay: CCRIS mutagenicity studies
[1] = Test System: AMES SALMONELLA TYPHIMURIUM, Strain/Indicator: TA98, Metabolic Activation: NONE, Method: PREINCUBATION
[2] = Test System: AMES SALMONELLA TYPHIMURIUM, Strain/Indicator: TA100, Metabolic Activation: NONE, Method: PREINCUBATION
[3] = Test System: AMES SALMONELLA TYPHIMURIUM, Strain/Indicator: TA1535, Metabolic Activation: NONE, Method: PREINCUBATION

## c1ccncc1
Test System: AMES SALMONELLA TYPHIMURIUM, Strain/Indicator: TA98, Metabolic Activation: HAMSTER LIVER S-9, AROCLOR 1254, 10%, Method: PREINCUBATION
  mutagenic call: inactive; negative
[1]
  mutagenic call: inactive; negative
Test System: AMES SALMONELLA TYPHIMURIUM, Strain/Indicator: TA98, Metabolic Activation: RAT LIVER S-9, AROCLOR 1254, 10%, Method: PREINCUBATION
  mutagenic call: inactive; negative
Test System: AMES SALMONELLA TYPHIMURIUM, Strain/Indicator: TA98, Metabolic Activation: RAT LIVER S-9, PHENOBARBITAL AND BETA-NAPHTHOFLAVONE, Method: PREINCUBATION
  mutagenic call: inactive; negative
Test System: AMES SALMONELLA TYPHIMURIUM, Strain/Indicator: TA98, Metabolic Activation: RAT, LIVER, S-9, AROCLOR 1254, Method: PREINCUBATION
  mutagenic call: inactive; negative
Test System: AMES SALMONELLA TYPHIMURIUM, Strain/Indicator: TA100, Metabolic Activation: HAMSTER LIVER S-9, AROCLOR 1254, 10%, Method: PREINCUBATION
  mutagenic call: inactive; negative
[2]
  mutagenic call: inactive; negative
Test System: AMES SALMONELLA TYPHIMURIUM, Strain/Indicator: TA100, Metabolic Activation: RAT LIVER S-9, AROCLOR 1254, 10%, Method: PREINCUBATION
  mutagenic call: inactive; negative
Test System: AMES SALMONELLA TYPHIMURIUM, Strain/Indicator: TA100, Metabolic Activation: RAT LIVER S-9, PHENOBARBITAL AND BETA-NAPHTHOFLAVONE, Method: PREINCUBATION
  mutagenic call: inactive; negative
Test System: AMES SALMONELLA TYPHIMURIUM, Strain/Indicator: TA100, Metabolic Activation: RAT, LIVER, S-9, AROCLOR 1254, Method: PREINCUBATION
  mutagenic call: inactive; negative
Test System: AMES SALMONELLA TYPHIMURIUM, Strain/Indicator: TA102, Metabolic Activation: NONE, Method: PREINCUBATION
  mutagenic call: inactive; negative
Test System: AMES SALMONELLA TYPHIMURIUM, Strain/Indicator: TA102, Metabolic Activation: RAT, LIVER, S-9, AROCLOR 1254, Method: PREINCUBATION
  mutagenic call: inactive; negative
Test System: AMES SALMONELLA TYPHIMURIUM, Strain/Indicator: TA1535, Metabolic Activation: HAMSTER LIVER S-9, AROCLOR 1254, 10%, Method: PREINCUBATION
  mutagenic call: inactive; negative
[3]
  mutagenic call: inactive; negative
Test System: AMES SALMONELLA TYPHIMURIUM, Strain/Indicator: TA1535, Metabolic Activation: RAT LIVER S-9, AROCLOR 1254, 10%, Method: PREINCUBATION
  mutagenic call: inactive; negative
Test System: AMES SALMONELLA TYPHIMURIUM, Strain/Indicator: TA1535, Metabolic Activation: RAT LIVER S-9, PHENOBARBITAL AND BETA-NAPHTHOFLAVONE, Method: PREINCUBATION
  mutagenic call: inactive; negative
Test System: AMES SALMONELLA TYPHIMURIUM, Strain/Indicator: TA1537, Metabolic Activation: HAMSTER LIVER S-9, AROCLOR 1254, 10%, Method: PREINCUBATION
  mutagenic call: inactive; negative
Test System: AMES SALMONELLA TYPHIMURIUM, Strain/Indicator: TA1537, Metabolic Activation: NONE, Method: PREINCUBATION
  mutagenic call: inactive; negative
Test System: AMES SALMONELLA TYPHIMURIUM, Strain/Indicator: TA1537, Metabolic Activation: RAT LIVER S-9, AROCLOR 1254, 10%, Method: PREINCUBATION
  mutagenic call: inactive; negative
Test System: AMES SALMONELLA TYPHIMURIUM, Strain/Indicator: TA1537, Metabolic Activation: RAT LIVER S-9, PHENOBARBITAL AND BETA-NAPHTHOFLAVONE, Method: PREINCUBATION
  mutagenic call: inactive; negative
Test System: E.COLI, Strain/Indicator: WP2UVRA, Metabolic Activation: NONE, Method: PREINCUBATION
  mutagenic call: inactive; negative
Test System: E.COLI, Strain/Indicator: WP2UVRA, Metabolic Activation: RAT LIVER S-9, PHENOBARBITAL AND BETA-NAPHTHOFLAVONE, Method: PREINCUBATION
  mutagenic call: inactive; negative
Test System: MOUSE LYMPHOMA, Strain/Indicator: L5178Y (TK+/TK-), Metabolic Activation: NONE, Method: SUSPENSION/PLATE
  mutagenic call: inactive; negative
Test System: MOUSE LYMPHOMA, Strain/Indicator: L5178Y (TK+/TK-), Metabolic Activation: RAT LIVER S-9, AROCLOR 1254, Method: SUSPENSION/PLATE
  mutagenic call: inactive; negative
Test System: UDS MOUSE HEPATOCYTES, Strain/Indicator: THYMIDINE INCORPORATION, Metabolic Activation: NONE, Method: IN VIVO/AUTORADIOGRAPHY
  mutagenic call: inactive; negative

## COP(=O)(OC)Oc1ccc([N+](=O)[O-])c(C)c1
Test System: AMES SALMONELLA TYPHIMURIUM, Strain/Indicator: TA98, Metabolic Activation: NONE, Method: STANDARD PLATE
  mutagenic call: inactive; negative
Test System: AMES SALMONELLA TYPHIMURIUM, Strain/Indicator: TA98, Metabolic Activation: RAT, LIVER, S-9, Method: STANDARD PLATE
  mutagenic call: active; positive
Test System: AMES SALMONELLA TYPHIMURIUM, Strain/Indicator: TA100, Metabolic Activation: NONE, Method: STANDARD PLATE
  mutagenic call: inactive; negative
Test System: AMES SALMONELLA TYPHIMURIUM, Strain/Indicator: TA100, Metabolic Activation: RAT, LIVER, S-9, Method: STANDARD PLATE
  mutagenic call: inactive; negative

## CC(=O)C1c2cccc(O)c2C(=O)c2c(O)cccc21
Test System: AMES SALMONELLA TYPHIMURIUM, Strain/Indicator: TA1537, Metabolic Activation: NONE, Method: STANDARD PLATE
  mutagenic call: active; positive
Test System: AMES SALMONELLA TYPHIMURIUM, Strain/Indicator: TA1537, Metabolic Activation: RAT, LIVER, S-9, PHENOBARBITAL AND BETA-NAPHTHOFLAVONE, Method: STANDARD PLATE
  mutagenic call: inactive; negative
Test System: E. COLI, Strain/Indicator: WP2, Metabolic Activation: NONE, Method: STANDARD PLATE
  mutagenic call: inactive; negative
Test System: E. COLI, Strain/Indicator: WP2, Metabolic Activation: RAT, LIVER, S-9, AROCLOR 1254, Method: STANDARD PLATE
  mutagenic call: inactive; negative
Test System: E. COLI, Strain/Indicator: WP2 UVRA, Metabolic Activation: NONE, Method: STANDARD PLATE
  mutagenic call: inactive; negative
Test System: E. COLI, Strain/Indicator: WP2 UVRA, Metabolic Activation: RAT, LIVER, S-9, AROCLOR 1254, Method: STANDARD PLATE
  mutagenic call: inactive; negative

## Cc1ccc2n[nH]nc2c1
Test System: AMES SALMONELLA TYPHIMURIUM, Strain/Indicator: TA97, Metabolic Activation: NONE
  mutagenic call: inactive; negative
Test System: AMES SALMONELLA TYPHIMURIUM, Strain/Indicator: TA97, Metabolic Activation: RAT, LIVER, S-9, AROCLOR 1254
  mutagenic call: inactive; negative
Test System: AMES SALMONELLA TYPHIMURIUM, Strain/Indicator: TA98, Metabolic Activation: NONE
  mutagenic call: inactive; negative
Test System: AMES SALMONELLA TYPHIMURIUM, Strain/Indicator: TA98, Metabolic Activation: RAT, LIVER, S-9, AROCLOR 1254
  mutagenic call: inactive; negative
Test System: AMES SALMONELLA TYPHIMURIUM, Strain/Indicator: TA100, Metabolic Activation: NONE
  mutagenic call: inactive; negative
Test System: AMES SALMONELLA TYPHIMURIUM, Strain/Indicator: TA100, Metabolic Activation: RAT, LIVER, S-9, AROCLOR 1254
  mutagenic call: inactive; negative
Test System: AMES SALMONELLA TYPHIMURIUM, Strain/Indicator: TA102, Metabolic Activation: NONE
  mutagenic call: inactive; negative
Test System: AMES SALMONELLA TYPHIMURIUM, Strain/Indicator: TA102, Metabolic Activation: RAT, LIVER, S-9, AROCLOR 1254
  mutagenic call: inactive; negative

## O=C(OCC1CO1)c1cccc(C(=O)OCC2CO2)c1 (stereo not given)
Test System: AMES SALMONELLA TYPHIMURIUM, Strain/Indicator: TA97, Metabolic Activation: HAMSTER, LIVER, S-9, AROCLOR 1254 (10%), Method: PREINCUBATION
  mutagenic call: inactive; negative
Test System: AMES SALMONELLA TYPHIMURIUM, Strain/Indicator: TA97, Metabolic Activation: NONE, Method: PREINCUBATION
  mutagenic call: active; positive
Test System: AMES SALMONELLA TYPHIMURIUM, Strain/Indicator: TA97, Metabolic Activation: RAT, LIVER, S-9, AROCLOR 1254 (10%), Method: PREINCUBATION
  mutagenic call: inactive; negative
Test System: AMES SALMONELLA TYPHIMURIUM, Strain/Indicator: TA98, Metabolic Activation: HAMSTER, LIVER, S-9, AROCLOR 1254 (10%), Method: PREINCUBATION
  mutagenic call: inactive; negative
[1]
  mutagenic call: inactive; negative
Test System: AMES SALMONELLA TYPHIMURIUM, Strain/Indicator: TA98, Metabolic Activation: RAT, LIVER, S-9, AROCLOR 1254 (10%), Method: PREINCUBATION
  mutagenic call: inactive; negative
Test System: AMES SALMONELLA TYPHIMURIUM, Strain/Indicator: TA100, Metabolic Activation: HAMSTER, LIVER, S-9, AROCLOR 1254 (10%), Method: PREINCUBATION
  mutagenic call: active; positive
[2]
  mutagenic call: active; positive
Test System: AMES SALMONELLA TYPHIMURIUM, Strain/Indicator: TA100, Metabolic Activation: RAT, LIVER, S-9, AROCLOR 1254 (10%), Method: PREINCUBATION
  mutagenic call: active; positive
Test System: AMES SALMONELLA TYPHIMURIUM, Strain/Indicator: TA1535, Metabolic Activation: HAMSTER, LIVER, S-9, AROCLOR 1254 (10%), Method: PREINCUBATION
  mutagenic call: active; positive
[3]
  mutagenic call: active; positive
Test System: AMES SALMONELLA TYPHIMURIUM, Strain/Indicator: TA1535, Metabolic Activation: RAT, LIVER, S-9, AROCLOR 1254 (10%), Method: PREINCUBATION
  mutagenic call: active; positive
